What was measured:
[1] = molecular target: T1, CgAspAT (Corynebacterium glutamicum, UniProt Q8NTR2); test: malate dehydrogenase-coupled NADH oxidation, […] nm; type: biochemical; details: 300 mM L-aspartate, 50 mM α-ketoglutarate, 100 mM Tris-HCl pH 8.0, 303 K, no added PLP
T1 construct: gene Cgl0240; pET30a, Ni-NTA purified, E. coli BL21(DE3)-T1R host; about 90 kDa homodimer; core domain Leu56-Gly304, C-terminal residue named Asn426

[2] = molecular target: T1, CgAspAT; test: X-ray crystal structure, […] Å; type: binding; details: copurified, no PLP added; 28% PEG 3350, 200 mM ammonium citrate dibasic; near Lys259 (known aldimine lysine, covalent bond not stated for this structure)
[3] = molecular target: the molecule itself; test: SEC; Sephacryl S-300 prep-grade column (320 ml), 40 mM Tris-HCl pH 8.0, 277 K; last step of the purification; dimer of the protein with itself

Molecule | malate dehydrogenase-coupled NADH oxidation, 340 nm [1] | also measured
O=C(O)CCC(=O)C(=O)O [α-ketoglutarate] | CgAspAT enzymes catalyze L-asparate and α-ketoglutarate to L-glutamate and oxaloacetate | 
Cc1ncc(COP(=O)(O)O)c(C=O)c1O [PLP] |  | X-ray crystal structure, 2.0 Å [2]: we observed the electron density for the PLP cofactor in our structure without adding it
N[C@@H](CC(=O)O)C(=O)O [L-aspartate] | CgAspAT enzymes catalyze L-asparate and α-ketoglutarate to L-glutamate and oxaloacetate | 
Aspartate aminotransferase from Corynebacterium glutamicum ATCC13032 (enzyme, Corynebacterium glutamicum ATCC 13032, Aspartate aminotransferase (CgAspAT) of Corynebacterium glutamicum ATCC 13032, gene amplified from chromosomal DNA and cloned into pET30a; residues up to Asn426 are named in the structure; also called CgAspAT; AspAT; source: E. coli BL21(DE3)-T1R, purified (Ni-NTA, size-exclusion chromatography on Sephacryl S-300)) MSSVSLQDFDAERIGLFHEDIKRKFDELKSKNLKLDLTRGKPSSEQLDFADELLALPGKGDFKAADGTDVRNYGGLDGIVDIRQIWADLLGVPVEQVLAGDASSLNIMFDVISWSYIFGNNDSVQPWSKEETVKWICPVPGYDRHFSITERFGFEMISVPMNEDGPDMDAVEELVKNPQVKGMWVVPVFSNPTGFTVTEDVAKRLSAMETAAPDFRVVWDNAYAVHTLTDEFPEVIDIVGLGEAAGNPNRFWAFTSTSKITLAGAGVSFFLTSAENRKWYTGHAGIRGIGPNKVNQLAHARYFGDAEGVRAVMRKHAASLAPKFNKVLEILDSRLAEYGVAQWTVPAGGYFISLDVVPGTASRVAELAKEAGIALTGAGSSYPLRQDPENKNLRLAPSLPPVEELEVAMDGVATCVLLAAAEHYAN |  | stoichiometry N [3]: 2
